Test results from PubChem BioAssay AID2060895 (Molecular Pharmacology Branch, DTP, NCI, 2025).
Blank lines part the entries; values can stand above or below the compound they belong to.

System: PDC 899932-113-R3-J6 complex spheroid viability
Test: Anticancer human tumor 899932-113-R3-J6-PDC patient-derived melanoma cell line growth inhibition [RAS]
Conditions: for IC50: curve of first compound; for viability, T/C: stronger effect = lower value
Outline: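 Tumour cells grown as complex spheroids with HUVEC endothelial cells and mesenchymal stem cells, treated with RAS pathway inhibitor combinations. Each agent spans half-log steps from near clinical Cmax, or 10 microM where Cmax is unknown.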

[1] = second compound 0.00316 µM, first compound 0.000949 µM
[2] = second compound 0.00316 µM, first compound 0.003 µM
[3] = second compound 0.00316 µM, first compound 0.00949 µM
[4] = second compound 0.00316 µM, first compound 0.03 µM
[5] = second compound 0.00316 µM, first compound 0.0949 µM
[6] = second compound 0.00316 µM, first compound 0.3 µM
[7] = second compound 0.01 µM, first compound 0.000949 µM
[8] = second compound 0.01 µM, first compound 0.003 µM
[9] = second compound 0.01 µM, first compound 0.00949 µM
[10] = second compound 0.01 µM, first compound 0.03 µM
[11] = second compound 0.01 µM, first compound 0.0949 µM
[12] = second compound 0.01 µM, first compound 0.3 µM
[13] = second compound 0.0316 µM, first compound 0.000949 µM
[14] = second compound 0.0316 µM, first compound 0.003 µM
[15] = second compound 0.0316 µM, first compound 0.00949 µM
[16] = second compound 0.0316 µM, first compound 0.03 µM
[17] = second compound 0.0316 µM, first compound 0.0949 µM
[18] = second compound 0.0316 µM, first compound 0.3 µM
[19] = second compound 0.1 µM, first compound 0.000949 µM
[20] = second compound 0.1 µM, first compound 0.003 µM
[21] = second compound 0.1 µM, first compound 0.00949 µM
[22] = second compound 0.1 µM, first compound 0.03 µM
[23] = second compound 0.1 µM, first compound 0.0949 µM
[24] = second compound 0.1 µM, first compound 0.3 µM
[25] = second compound 0.316 µM, first compound 0.000949 µM
[26] = second compound 0.316 µM, first compound 0.003 µM
[27] = second compound 0.316 µM, first compound 0.00949 µM
[28] = second compound 0.316 µM, first compound 0.03 µM
[29] = second compound 0.316 µM, first compound 0.0949 µM
[30] = second compound 0.316 µM, first compound 0.3 µM
[31] = second compound 1 µM, first compound 0.000949 µM
[32] = second compound 1 µM, first compound 0.003 µM
[33] = second compound 1 µM, first compound 0.00949 µM
[34] = second compound 1 µM, first compound 0.03 µM
[35] = second compound 1 µM, first compound 0.0949 µM
[36] = second compound 1 µM, first compound 0.3 µM
[37] = second compound 0.000949 µM, first compound 0.00316 µM
[38] = second compound 0.000949 µM, first compound 0.01 µM
[39] = second compound 0.000949 µM, first compound 0.0316 µM
[40] = second compound 0.000949 µM, first compound 0.1 µM
[41] = second compound 0.000949 µM, first compound 0.316 µM
[42] = second compound 0.000949 µM, first compound 1 µM
[43] = second compound 0.003 µM, first compound 0.00316 µM
[44] = second compound 0.003 µM, first compound 0.01 µM
[45] = second compound 0.003 µM, first compound 0.0316 µM
[46] = second compound 0.003 µM, first compound 0.1 µM
[47] = second compound 0.003 µM, first compound 0.316 µM
[48] = second compound 0.003 µM, first compound 1 µM
[49] = second compound 0.00949 µM, first compound 0.00316 µM
[50] = second compound 0.00949 µM, first compound 0.01 µM
[51] = second compound 0.00949 µM, first compound 0.0316 µM
[52] = second compound 0.00949 µM, first compound 0.1 µM
[53] = second compound 0.00949 µM, first compound 0.316 µM
[54] = second compound 0.00949 µM, first compound 1 µM
[55] = second compound 0.03 µM, first compound 0.00316 µM
[56] = second compound 0.03 µM, first compound 0.01 µM
[57] = second compound 0.03 µM, first compound 0.0316 µM
[58] = second compound 0.03 µM, first compound 0.1 µM
[59] = second compound 0.03 µM, first compound 0.316 µM
[60] = second compound 0.03 µM, first compound 1 µM
[61] = second compound 0.0949 µM, first compound 0.00316 µM
[62] = second compound 0.0949 µM, first compound 0.01 µM
[63] = second compound 0.0949 µM, first compound 0.0316 µM
[64] = second compound 0.0949 µM, first compound 0.1 µM
[65] = second compound 0.0949 µM, first compound 0.316 µM
[66] = second compound 0.0949 µM, first compound 1 µM
[67] = second compound 0.3 µM, first compound 0.00316 µM
[68] = second compound 0.3 µM, first compound 0.01 µM
[69] = second compound 0.3 µM, first compound 0.0316 µM
[70] = second compound 0.3 µM, first compound 0.1 µM
[71] = second compound 0.3 µM, first compound 0.316 µM
[72] = second compound 0.3 µM, first compound 1 µM
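Throughout, for viability, T/C: spheroids exposed to agents for seven days before readout; 100% = DMSO vehicle control wells.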

IC50 (second compound 0.00316 µM): 8.77 nM | IC50 (second compound 0.01 µM): 9.74 nM | IC50 (second compound 0.0316 µM): 11 nM | IC50 (second compound 0.1 µM): 8.56 nM | IC50 (second compound 0.316 µM): 9.45 nM | IC50 (second compound 1 µM): 8.03 nM
Structure (SMILES): CC1(C)CCC(Nc2ncc(C(F)(F)F)c(-c3c[nH]c4c(P(C)(C)=O)c(C#N)ccc34)n2)CN1 (stereo not drawn) + C=CC(=O)N1CCN(c2nc(OCC3CCCN3C)nc3c(F)c(-c4nc(N)cc(C)c4C(F)(F)F)c(Cl)cc23)C(C)C1
viability, T/C [1]: 105% | viability, T/C [2]: 73% | viability, T/C [3]: 51.5% | viability, T/C [4]: 25.9% | viability, T/C [5]: 16.4% | viability, T/C [6]: 8.68% | viability, T/C [7]: 96.8% | viability, T/C [8]: 79.2% | viability, T/C [9]: 48% | viability, T/C [10]: 30.5% | viability, T/C [11]: 16.4% | viability, T/C [12]: 11.2% | viability, T/C [13]: 102% | viability, T/C [14]: 75.3% | viability, T/C [15]: 56.3% | viability, T/C [16]: 29.9% | viability, T/C [17]: 15.4% | viability, T/C [18]: 8.82% | viability, T/C [19]: 94.8% | viability, T/C [20]: 68% | viability, T/C [21]: 51.4% | viability, T/C [22]: 28.1% | viability, T/C [23]: 16.4% | viability, T/C [24]: 8.6% | viability, T/C [25]: 107% | viability, T/C [26]: 73.9% | viability, T/C [27]: 52.9% | viability, T/C [28]: 30.4% | viability, T/C [29]: 12.2% | viability, T/C [30]: 9.67% | viability, T/C [31]: 95.1% | viability, T/C [32]: 71.7% | viability, T/C [33]: 47.4% | viability, T/C [34]: 25.7% | viability, T/C [35]: 10.5% | viability, T/C [36]: 10.9%

IC50 (second compound 0.00316 µM): 19.6 nM | IC50 (second compound 0.01 µM): 24.3 nM | IC50 (second compound 0.0316 µM): 33.1 nM | IC50 (second compound 0.1 µM): 30.3 nM | IC50 (second compound 0.316 µM): 29.4 nM | IC50 (second compound 1 µM): 31.8 nM
Structure (SMILES): CCc1c2c(nc3ccc(O)cc13)-c1cc3c(c(=O)n1C2)COC(=O)[C@]3(O)CC + C=CC(=O)N1CCN(c2nc(OCC3CCCN3C)nc3c(F)c(-c4nc(N)cc(C)c4C(F)(F)F)c(Cl)cc23)C(C)C1
viability, T/C [1]: 89.8% | viability, T/C [2]: 65.9% | viability, T/C [3]: 57.6% | viability, T/C [4]: 48.6% | viability, T/C [5]: 39.2% | viability, T/C [6]: 36% | viability, T/C [7]: 92.8% | viability, T/C [8]: 67.4% | viability, T/C [9]: 59.2% | viability, T/C [10]: 50.2% | viability, T/C [11]: 43% | viability, T/C [12]: 36.4% | viability, T/C [13]: 93.5% | viability, T/C [14]: 78% | viability, T/C [15]: 59.9% | viability, T/C [16]: 51% | viability, T/C [17]: 43.9% | viability, T/C [18]: 30.3% | viability, T/C [19]: 102% | viability, T/C [20]: 69.5% | viability, T/C [21]: 61.3% | viability, T/C [22]: 55.7% | viability, T/C [23]: 43.2% | viability, T/C [24]: 38.4% | viability, T/C [25]: 95.6% | viability, T/C [26]: 71.7% | viability, T/C [27]: 58.6% | viability, T/C [28]: 54.1% | viability, T/C [29]: 43% | viability, T/C [30]: 34.4% | viability, T/C [31]: 96.5% | viability, T/C [32]: 75% | viability, T/C [33]: 59.9% | viability, T/C [34]: 51.7% | viability, T/C [35]: 44.6% | viability, T/C [36]: 34.3%

IC50 (second compound 0.000949 µM): > 1000 nM | IC50 (second compound 0.003 µM): < 3.16 nM | IC50 (second compound 0.00949 µM): < 3.16 nM | IC50 (second compound 0.03 µM): < 3.16 nM | IC50 (second compound 0.0949 µM): < 3.16 nM | IC50 (second compound 0.3 µM): < 3.16 nM
Structure (SMILES): C=CC(=O)Nc1cc(Nc2nccc(-c3cn(C)c4ccccc34)n2)c(OC)cc1N(C)CCN(C)C + CCn1c(-c2cc(N3CCN(C)CC3)cnc2C(C)OC)c2c3cc(ccc31)-c1csc(n1)CC(NC(=O)C1CC1C)C(=O)N1CCCC(N1)C(=O)OCC(C)(C)C2
viability, T/C [37]: 69.1% | viability, T/C [38]: 69.2% | viability, T/C [39]: 67% | viability, T/C [40]: 79.7% | viability, T/C [41]: 76.7% | viability, T/C [42]: 64.3% | viability, T/C [43]: 32.5% | viability, T/C [44]: 28.4% | viability, T/C [45]: 28.7% | viability, T/C [46]: 33.8% | viability, T/C [47]: 31.5% | viability, T/C [48]: 16.9% | viability, T/C [49]: 4.3% | viability, T/C [50]: 3.34% | viability, T/C [51]: 3.46% | viability, T/C [52]: 3.41% | viability, T/C [53]: 2.9% | viability, T/C [54]: 2.5% | viability, T/C [55]: 2.61% | viability, T/C [56]: 2.72% | viability, T/C [57]: 2.62% | viability, T/C [58]: 2.55% | viability, T/C [59]: 2.41% | viability, T/C [60]: 1.43% | viability, T/C [61]: 2.26% | viability, T/C [62]: 2.18% | viability, T/C [63]: 2.56% | viability, T/C [64]: 2.02% | viability, T/C [65]: 1.87% | viability, T/C [66]: 1.11% | viability, T/C [67]: 2.04% | viability, T/C [68]: 2.23% | viability, T/C [69]: 1.88% | viability, T/C [70]: 1.96% | viability, T/C [71]: 1.49% | viability, T/C [72]: 1.11%

IC50 (second compound 0.000949 µM): < 3.16 nM | IC50 (second compound 0.003 µM): < 3.16 nM | IC50 (second compound 0.00949 µM): < 3.16 nM | IC50 (second compound 0.03 µM): < 3.16 nM | IC50 (second compound 0.0949 µM): < 3.16 nM | IC50 (second compound 0.3 µM): < 3.16 nM
Structure (SMILES): O=C(c1ccc(F)c(F)c1Nc1ccc(I)cc1F)N1CC(O)([C@@H]2CCCCN2)C1 + CCn1c(-c2cc(N3CCN(C)CC3)cnc2C(C)OC)c2c3cc(ccc31)-c1csc(n1)CC(NC(=O)C1CC1C)C(=O)N1CCCC(N1)C(=O)OCC(C)(C)C2
viability, T/C [37]: 39.5% | viability, T/C [38]: 11.1% | viability, T/C [39]: 2.22% | viability, T/C [40]: 1.79% | viability, T/C [41]: 0.22% | viability, T/C [42]: 0.2% | viability, T/C [43]: 13.7% | viability, T/C [44]: 2.9% | viability, T/C [45]: 2.47% | viability, T/C [46]: 1.41% | viability, T/C [47]: 0.18% | viability, T/C [48]: 0.12% | viability, T/C [49]: 3.2% | viability, T/C [50]: 2.49% | viability, T/C [51]: 1.79% | viability, T/C [52]: 0.56% | viability, T/C [53]: 0.06% | viability, T/C [54]: 0.13% | viability, T/C [55]: 2.9% | viability, T/C [56]: 2.26% | viability, T/C [57]: 1.17% | viability, T/C [58]: 0.14% | viability, T/C [59]: 0.07% | viability, T/C [60]: 0.11% | viability, T/C [61]: 1.79% | viability, T/C [62]: 1.48% | viability, T/C [63]: 0.57% | viability, T/C [64]: 0.07% | viability, T/C [65]: 0.1% | viability, T/C [66]: 0.13% | viability, T/C [67]: 1.39% | viability, T/C [68]: 1.61% | viability, T/C [69]: 0.46% | viability, T/C [70]: 0.12% | viability, T/C [71]: 0.17% | viability, T/C [72]: 0.17%
